In ChEMBL document CHEMBL1140165, “Rotationally constrained 2,4-diamino-5,6-disubstituted pyrimidines: a new class of histamine H4 receptor antagonists with improved druglikeness and in vivo efficacy in pain and inflammation models” (J Med Chem, 2008):
The source made the active and inactive calls. The rule behind the calls is not given here.

Molecular target: Histamine H4 receptor (Rattus norvegicus) (UniProt Q91ZY1)
Assay: (§1) Antagonist activity at rat histamine H4 receptor expressed in HEK293 cells assessed as inhibition of histamine-induced intracellular calcium elevation by FLIPR assay
Format: functional, cell-based
Conditions: not given

Sequence of Histamine H4 receptor (Rattus norvegicus) (Q91ZY1 whole entry): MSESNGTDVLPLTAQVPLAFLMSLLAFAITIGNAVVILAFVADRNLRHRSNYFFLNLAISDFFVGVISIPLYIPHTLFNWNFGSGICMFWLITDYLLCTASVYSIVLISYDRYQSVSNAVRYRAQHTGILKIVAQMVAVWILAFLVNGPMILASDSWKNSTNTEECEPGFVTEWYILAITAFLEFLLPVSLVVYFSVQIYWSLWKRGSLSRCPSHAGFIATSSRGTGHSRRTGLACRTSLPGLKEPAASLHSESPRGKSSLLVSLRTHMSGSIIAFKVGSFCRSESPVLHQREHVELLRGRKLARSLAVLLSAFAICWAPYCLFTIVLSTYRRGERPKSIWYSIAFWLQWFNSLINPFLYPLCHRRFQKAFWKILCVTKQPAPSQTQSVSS

SMILES | pKb
CN[C@@H]1CCN(c2nc(N)nc3c2CCCCc2ccccc2-3)C1 | 7.5
CN[C@@H]1CCN(c2nc(N)nc3c2CCc2ccccc2-3)C1 | 7.66
CN[C@@H]1CCN(c2nc(N)nc3c2CCCCCc2ccccc2-3)C1 | 7.25

Molecular target: T1, Histamine H4 receptor (Rattus norvegicus, UniProt Q91ZY1)
Assay: as §1
Format: functional, cell-based
Conditions: not given

T1 sequence (Q91ZY1 whole entry): as above

SMILES | EC50 [nM]
Nc1nc2c(c(N3CCNCC3)n1)CCCc1ccc(F)cc1-2 | 6.03
Nc1nc2c(c(N3CCNCC3)n1)Cc1ccccc1-2 | 20
CN[C@@H]1CCN(c2nc(N)nc3c2Cc2ccccc2-3)C1 | 19.1

Molecular target: Histamine H4 receptor (Rattus norvegicus) (UniProt Q91ZY1)
Assay: Antagonist activity at rat histamine H4 receptor expressed in HEK293 cells assessed as inhibition of histamine-induced intracellular calcium elevation by FLIPR assay relative to histamine
Format: functional, cell-based
Conditions: not given

SMILES | Efficacy [%]
Nc1nc2c(c(N3CCNCC3)n1)Cc1ccccc1-2 | 96

Molecular target: T2, Histamine H4 receptor (Mus musculus, UniProt Q91ZY2)
T2 sequence (Q91ZY2 whole entry): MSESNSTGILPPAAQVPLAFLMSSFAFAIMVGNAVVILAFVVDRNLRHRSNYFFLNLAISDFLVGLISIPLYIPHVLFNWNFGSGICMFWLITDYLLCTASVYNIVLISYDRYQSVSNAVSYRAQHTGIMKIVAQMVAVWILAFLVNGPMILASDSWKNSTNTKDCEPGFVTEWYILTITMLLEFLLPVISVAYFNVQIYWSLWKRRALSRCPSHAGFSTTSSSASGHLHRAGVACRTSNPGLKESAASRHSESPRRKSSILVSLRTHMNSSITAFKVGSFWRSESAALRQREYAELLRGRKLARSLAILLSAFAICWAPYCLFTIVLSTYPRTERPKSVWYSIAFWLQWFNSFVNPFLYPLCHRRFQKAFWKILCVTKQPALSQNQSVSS
Assay: Antagonist activity at mouse histamine H4 receptor expressed in HEK293 cells assessed as inhibition of histamine-induced intracellular calcium elevation by FLIPR assay
Format: functional, cell-based
Conditions: not given

SMILES | EC50 [nM]
Nc1nc2c(c(N3CCNCC3)n1)CCCc1ccc(F)cc1-2 | 4.79

Molecular target: T3, Histamine H4 receptor (Homo sapiens, UniProt Q9H3N8)
Assay: Displacement of [3H]histamine from human histamine H4 receptor expressed in HEK293 cells
Format: cell-based
Conditions: read-out: Ki

SMILES | Ki [nM]
Nc1nc2c(c(N3CCNCC3)n1)CCCc1ccc(F)cc1-2 | 5.1

Same assay, conditions: read-out: pKi (converted)

SMILES | Ki [nM]
Nc1nc2c(c(N3CCNCC3)n1)Cc1ccccc1-2 | 12.9

Molecular target: T1, Histamine H4 receptor
Assay: Displacement of [3H]histamine from rat histamine H4 receptor expressed in HEK293 cells
Format: cell-based
Conditions: not given

SMILES | Ki [nM]
Nc1nc2c(c(N3CCNCC3)n1)CCCc1ccc(F)cc1-2 | 1.45
Nc1nc2c(c(N3CCNCC3)n1)Cc1ccccc1-2 | 4.79

Tested on: BMMC
Assay: Blockade of histamine-induced morphological changes in BALB/c mouse BMMC by flow cytometry
Format: functional, cell-based
Conditions: not given

SMILES | Activity
Nc1nc2c(c(N3CCNCC3)n1)CCCc1ccc(F)cc1-2 | Active
CN[C@@H]1CCN(c2nc(N)nc3c2CCCCc2ccccc2-3)C1 | inactive
CN[C@@H]1CCN(c2nc(N)nc3c2CCCCCc2ccccc2-3)C1 | inactive

Tested on: not listed separately
Assay: Selectivity ratio of Ki for human histamine H4 receptor to Ki for histamine H1 receptor
Conditions: not given

SMILES | Ratio Ki
Nc1nc2c(c(N3CCNCC3)n1)CCCc1ccc(F)cc1-2 | > 1290

Tested on: not listed separately
Assay: Selectivity ratio of Ki for human histamine H4 receptor to Ki for histamine H2 receptor
Conditions: not given

SMILES | Ratio Ki
Nc1nc2c(c(N3CCNCC3)n1)CCCc1ccc(F)cc1-2 | > 1820

Species: Homo sapiens
Assay: Selectivity ratio of Ki for human histamine H4 receptor to Ki for human histamine H3 receptor
Conditions: not given

SMILES | Ratio Ki
Nc1nc2c(c(N3CCNCC3)n1)CCCc1ccc(F)cc1-2 | 470

Tested on: not listed separately
Assay: Selectivity ratio of Ki for human histamine H4 receptor to Ki for 5HT1A receptor
Conditions: not given

SMILES | Ratio Ki
Nc1nc2c(c(N3CCNCC3)n1)CCCc1ccc(F)cc1-2 | 3070

Tested on: not listed separately
Assay: Selectivity ratio of Ki for human histamine H4 receptor to Ki for 5HT1D receptor
Conditions: not given

SMILES | Ratio Ki
Nc1nc2c(c(N3CCNCC3)n1)CCCc1ccc(F)cc1-2 | 850

Tested on: not listed separately
Assay: Selectivity ratio of Ki for human histamine H4 receptor to Ki for 5HT2A receptor
Conditions: not given

SMILES | Ratio Ki
Nc1nc2c(c(N3CCNCC3)n1)CCCc1ccc(F)cc1-2 | 765

Tested on: not listed separately
Assay: Selectivity ratio of Ki for human histamine H4 receptor to Ki for dopamine D2 receptor
Conditions: not given

SMILES | Ratio Ki
Nc1nc2c(c(N3CCNCC3)n1)CCCc1ccc(F)cc1-2 | > 2000

Tested on: not listed separately
Assay: Selectivity ratio of Ki for human histamine H4 receptor to Ki for adrenergic alpha1 receptor
Conditions: not given

SMILES | Ratio Ki
Nc1nc2c(c(N3CCNCC3)n1)CCCc1ccc(F)cc1-2 | 1220

Molecular target: Prostaglandin G/H synthase 1 (Homo sapiens) (UniProt P23219)
Assay: Binding affinity at COX1
Conditions: not given

Sequence of Prostaglandin G/H synthase 1 (Homo sapiens) (P23219 whole entry): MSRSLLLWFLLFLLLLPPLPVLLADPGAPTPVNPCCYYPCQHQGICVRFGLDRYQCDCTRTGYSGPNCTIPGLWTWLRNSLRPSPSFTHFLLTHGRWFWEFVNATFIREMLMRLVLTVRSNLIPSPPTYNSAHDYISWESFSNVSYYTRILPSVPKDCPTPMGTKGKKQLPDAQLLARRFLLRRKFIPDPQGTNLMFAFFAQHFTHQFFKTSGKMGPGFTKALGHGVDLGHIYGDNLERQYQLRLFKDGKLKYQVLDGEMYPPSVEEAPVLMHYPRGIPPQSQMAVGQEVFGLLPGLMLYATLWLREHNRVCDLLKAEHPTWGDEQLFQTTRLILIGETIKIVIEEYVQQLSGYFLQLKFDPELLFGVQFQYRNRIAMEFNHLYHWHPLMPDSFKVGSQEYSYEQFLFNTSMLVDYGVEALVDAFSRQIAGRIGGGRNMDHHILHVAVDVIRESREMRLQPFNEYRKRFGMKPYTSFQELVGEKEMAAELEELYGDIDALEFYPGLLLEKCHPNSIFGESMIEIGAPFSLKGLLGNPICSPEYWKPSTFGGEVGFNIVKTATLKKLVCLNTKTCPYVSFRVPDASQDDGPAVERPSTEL

SMILES | Activity
Nc1nc2c(c(N3CCNCC3)n1)CCCc1ccc(F)cc1-2 | inactive

Molecular target: T4, Prostaglandin G/H synthase 2 (Homo sapiens) (UniProt P35354)
T4 sequence (whole entry): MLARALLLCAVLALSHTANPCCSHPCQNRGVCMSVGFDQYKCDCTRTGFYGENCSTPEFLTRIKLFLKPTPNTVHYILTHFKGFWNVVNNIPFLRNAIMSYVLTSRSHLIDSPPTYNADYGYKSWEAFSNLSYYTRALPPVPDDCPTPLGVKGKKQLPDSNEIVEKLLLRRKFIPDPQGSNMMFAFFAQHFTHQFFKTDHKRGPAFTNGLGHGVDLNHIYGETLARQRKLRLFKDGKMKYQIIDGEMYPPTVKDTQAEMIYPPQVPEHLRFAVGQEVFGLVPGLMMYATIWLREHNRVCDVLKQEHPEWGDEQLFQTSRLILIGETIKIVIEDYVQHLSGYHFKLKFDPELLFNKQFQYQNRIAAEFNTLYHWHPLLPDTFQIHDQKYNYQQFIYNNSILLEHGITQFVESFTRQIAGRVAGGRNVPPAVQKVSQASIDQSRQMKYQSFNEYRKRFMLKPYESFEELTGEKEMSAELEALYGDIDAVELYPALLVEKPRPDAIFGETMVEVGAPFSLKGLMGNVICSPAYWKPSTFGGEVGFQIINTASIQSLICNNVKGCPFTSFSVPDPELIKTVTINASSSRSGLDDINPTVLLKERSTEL
Assay: Binding affinity at COX2
Conditions: not given

SMILES | Activity
Nc1nc2c(c(N3CCNCC3)n1)CCCc1ccc(F)cc1-2 | inactive

Molecular target: Mu-type opioid receptor (Homo sapiens) (UniProt P35372)
Assay: Binding affinity to mu opioid receptor
Conditions: not given

Sequence of Mu-type opioid receptor (Homo sapiens) (P35372 whole entry): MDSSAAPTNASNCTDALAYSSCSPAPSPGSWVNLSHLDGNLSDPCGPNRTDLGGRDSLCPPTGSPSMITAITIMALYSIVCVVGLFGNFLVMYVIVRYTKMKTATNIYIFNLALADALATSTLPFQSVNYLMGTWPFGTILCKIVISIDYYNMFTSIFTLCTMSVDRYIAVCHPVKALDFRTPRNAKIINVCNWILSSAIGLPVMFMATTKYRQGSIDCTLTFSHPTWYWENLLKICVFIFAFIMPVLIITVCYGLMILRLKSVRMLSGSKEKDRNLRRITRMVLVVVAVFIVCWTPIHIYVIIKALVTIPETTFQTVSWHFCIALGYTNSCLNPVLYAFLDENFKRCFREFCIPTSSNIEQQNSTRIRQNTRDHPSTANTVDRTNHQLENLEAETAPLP

SMILES | Activity
Nc1nc2c(c(N3CCNCC3)n1)CCCc1ccc(F)cc1-2 | inactive

Molecular target: Kappa-type opioid receptor (Homo sapiens) (UniProt P41145)
Assay: Binding affinity to kappa opioid receptor
Conditions: not given

Sequence of Kappa-type opioid receptor (Homo sapiens) (P41145 whole entry): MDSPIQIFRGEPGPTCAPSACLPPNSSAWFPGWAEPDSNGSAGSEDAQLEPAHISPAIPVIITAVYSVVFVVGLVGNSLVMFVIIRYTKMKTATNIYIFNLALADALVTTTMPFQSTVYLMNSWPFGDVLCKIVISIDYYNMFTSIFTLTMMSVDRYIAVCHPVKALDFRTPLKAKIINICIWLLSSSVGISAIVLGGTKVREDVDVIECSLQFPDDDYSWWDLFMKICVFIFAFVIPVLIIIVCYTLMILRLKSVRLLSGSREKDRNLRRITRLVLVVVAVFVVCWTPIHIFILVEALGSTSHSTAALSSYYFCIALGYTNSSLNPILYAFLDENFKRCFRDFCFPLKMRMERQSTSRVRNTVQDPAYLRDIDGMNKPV

SMILES | Activity
Nc1nc2c(c(N3CCNCC3)n1)CCCc1ccc(F)cc1-2 | inactive

Molecular target: Delta-type opioid receptor (Homo sapiens) (UniProt P41143)
Assay: Binding affinity to delta opioid receptor
Conditions: not given

Sequence of Delta-type opioid receptor (Homo sapiens) (P41143 whole entry): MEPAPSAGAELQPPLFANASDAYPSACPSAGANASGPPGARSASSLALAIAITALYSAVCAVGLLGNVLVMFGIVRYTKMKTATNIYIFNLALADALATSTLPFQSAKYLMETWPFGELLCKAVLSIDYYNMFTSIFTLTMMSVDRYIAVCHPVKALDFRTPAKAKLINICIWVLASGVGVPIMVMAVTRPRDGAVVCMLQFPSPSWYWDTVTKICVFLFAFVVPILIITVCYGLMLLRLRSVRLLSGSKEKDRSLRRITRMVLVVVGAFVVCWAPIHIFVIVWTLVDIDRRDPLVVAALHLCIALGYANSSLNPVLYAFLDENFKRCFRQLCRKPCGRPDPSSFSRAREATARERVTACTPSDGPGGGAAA

SMILES | Activity
Nc1nc2c(c(N3CCNCC3)n1)CCCc1ccc(F)cc1-2 | inactive

Molecular target: Cannabinoid receptor 1 (Homo sapiens) (UniProt P21554)
Assay: Binding affinity to CB1 receptor
Conditions: not given

Sequence of Cannabinoid receptor 1 (Homo sapiens) (P21554 whole entry): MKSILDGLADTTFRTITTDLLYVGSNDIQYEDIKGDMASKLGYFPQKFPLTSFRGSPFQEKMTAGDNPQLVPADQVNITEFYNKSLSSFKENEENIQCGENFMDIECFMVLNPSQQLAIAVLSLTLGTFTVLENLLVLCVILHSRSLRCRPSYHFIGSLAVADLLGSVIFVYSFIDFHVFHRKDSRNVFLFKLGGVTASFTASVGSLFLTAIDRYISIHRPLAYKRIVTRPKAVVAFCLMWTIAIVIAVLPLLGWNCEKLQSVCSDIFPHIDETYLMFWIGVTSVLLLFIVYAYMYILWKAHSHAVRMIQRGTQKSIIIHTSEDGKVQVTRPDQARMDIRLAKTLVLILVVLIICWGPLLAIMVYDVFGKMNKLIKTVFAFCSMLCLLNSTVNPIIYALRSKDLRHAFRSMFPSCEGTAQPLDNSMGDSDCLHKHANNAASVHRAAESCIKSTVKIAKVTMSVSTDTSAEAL

SMILES | Activity
Nc1nc2c(c(N3CCNCC3)n1)CCCc1ccc(F)cc1-2 | inactive

Molecular target: Cannabinoid receptor 2 (Homo sapiens) (UniProt P34972)
Assay: Binding affinity to CB2 receptor
Conditions: not given

Sequence of Cannabinoid receptor 2 (Homo sapiens) (P34972 whole entry): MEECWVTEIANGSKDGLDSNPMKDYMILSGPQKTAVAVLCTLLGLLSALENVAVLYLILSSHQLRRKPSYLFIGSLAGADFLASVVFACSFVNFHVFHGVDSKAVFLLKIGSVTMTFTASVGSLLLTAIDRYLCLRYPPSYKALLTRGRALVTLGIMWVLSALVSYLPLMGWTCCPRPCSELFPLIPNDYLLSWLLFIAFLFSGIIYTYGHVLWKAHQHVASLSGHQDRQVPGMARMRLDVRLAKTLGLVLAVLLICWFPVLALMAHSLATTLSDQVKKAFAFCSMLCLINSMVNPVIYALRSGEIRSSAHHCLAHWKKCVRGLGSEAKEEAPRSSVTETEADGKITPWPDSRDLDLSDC

SMILES | Activity
Nc1nc2c(c(N3CCNCC3)n1)CCCc1ccc(F)cc1-2 | inactive

Tested on: Liver microsomes
Assay: Metabolic stability in rat liver microsomes
Format: ADME, Microsome
Conditions: not given

SMILES | Stability [pmol/min/mg]
Nc1nc2c(c(N3CCNCC3)n1)CCCc1ccc(F)cc1-2 | 200
Nc1nc2c(c(N3CCNCC3)n1)Cc1ccccc1-2 | 65.8

Tested on: Liver microsomes
Assay: Metabolic stability in human liver microsomes
Format: ADME, Microsome
Conditions: not given

SMILES | Stability [pmol/min/mg]
Nc1nc2c(c(N3CCNCC3)n1)CCCc1ccc(F)cc1-2 | 27.3
Nc1nc2c(c(N3CCNCC3)n1)Cc1ccccc1-2 | 18.7

Tested on: not listed separately
Assay: Metabolic stability in mouse liver microsomes
Format: ADME, Microsome
Conditions: not given

SMILES | Stability [pmol/min/mg]
Nc1nc2c(c(N3CCNCC3)n1)CCCc1ccc(F)cc1-2 | 32.4
Nc1nc2c(c(N3CCNCC3)n1)Cc1ccccc1-2 | 43.6

Tested on: not listed separately
Assay: Protein binding in rat
Format: ADME, organism-based
Conditions: in vivo, read-out: PB (converted)

SMILES | fraction unbound
Nc1nc2c(c(N3CCNCC3)n1)CCCc1ccc(F)cc1-2 | 0.34
Nc1nc2c(c(N3CCNCC3)n1)Cc1ccccc1-2 | 0.31

Tested on: not listed separately
Assay: Protein binding in human
Format: ADME, organism-based
Conditions: in vivo, read-out: PB (converted)

SMILES | fraction unbound
Nc1nc2c(c(N3CCNCC3)n1)CCCc1ccc(F)cc1-2 | 0.39
Nc1nc2c(c(N3CCNCC3)n1)Cc1ccccc1-2 | 0.72

Molecular target: Cytochrome P450 3A4 (Homo sapiens, UniProt P08684)
Assay: Inhibition of CYP3A4 upto 10 uM
Format: ADME
Conditions: not given

Sequence of Cytochrome P450 3A4 (P08684 whole entry): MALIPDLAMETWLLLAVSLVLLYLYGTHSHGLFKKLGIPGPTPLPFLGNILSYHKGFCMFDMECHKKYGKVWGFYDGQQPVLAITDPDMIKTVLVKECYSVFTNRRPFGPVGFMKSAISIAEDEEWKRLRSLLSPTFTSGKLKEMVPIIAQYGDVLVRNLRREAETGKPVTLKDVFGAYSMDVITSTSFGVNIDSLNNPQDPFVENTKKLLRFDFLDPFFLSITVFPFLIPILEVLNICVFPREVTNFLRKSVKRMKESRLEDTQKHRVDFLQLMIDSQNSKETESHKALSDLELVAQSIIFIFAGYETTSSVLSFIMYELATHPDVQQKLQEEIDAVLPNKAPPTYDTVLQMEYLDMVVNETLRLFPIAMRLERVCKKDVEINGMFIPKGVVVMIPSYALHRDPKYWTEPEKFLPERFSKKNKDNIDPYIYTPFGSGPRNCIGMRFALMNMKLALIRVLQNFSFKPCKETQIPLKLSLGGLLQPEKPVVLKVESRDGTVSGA

SMILES | Activity
Nc1nc2c(c(N3CCNCC3)n1)CCCc1ccc(F)cc1-2 | Not Active
Nc1nc2c(c(N3CCNCC3)n1)Cc1ccccc1-2 | Not Active

Molecular target: Cytochrome P450 2D6 (Homo sapiens, UniProt P10635)
Assay: Inhibition of CYP2D6 upto 10 uM
Format: ADME
Conditions: not given

Sequence of Cytochrome P450 2D6 (P10635 whole entry): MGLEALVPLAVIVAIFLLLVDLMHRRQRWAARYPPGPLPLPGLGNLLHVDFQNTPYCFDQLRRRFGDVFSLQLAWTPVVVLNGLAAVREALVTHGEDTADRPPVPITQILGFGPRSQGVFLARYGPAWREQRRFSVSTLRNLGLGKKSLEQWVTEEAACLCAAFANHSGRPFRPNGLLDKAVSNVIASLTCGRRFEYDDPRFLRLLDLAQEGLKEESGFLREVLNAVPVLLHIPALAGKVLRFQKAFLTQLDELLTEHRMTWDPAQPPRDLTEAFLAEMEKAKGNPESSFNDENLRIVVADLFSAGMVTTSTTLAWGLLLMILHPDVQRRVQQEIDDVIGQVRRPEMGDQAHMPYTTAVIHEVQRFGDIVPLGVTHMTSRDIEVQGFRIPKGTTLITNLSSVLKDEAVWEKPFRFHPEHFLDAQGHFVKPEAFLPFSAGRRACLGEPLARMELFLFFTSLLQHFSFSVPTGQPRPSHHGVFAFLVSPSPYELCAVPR

SMILES | Activity
Nc1nc2c(c(N3CCNCC3)n1)CCCc1ccc(F)cc1-2 | Not Active
Nc1nc2c(c(N3CCNCC3)n1)Cc1ccccc1-2 | Not Active

Molecular target: Cytochrome P450 2C9 (Homo sapiens, UniProt P11712)
Assay: Inhibition of CYP2C9 upto 10 uM
Format: ADME
Conditions: not given

Sequence of Cytochrome P450 2C9 (P11712 whole entry): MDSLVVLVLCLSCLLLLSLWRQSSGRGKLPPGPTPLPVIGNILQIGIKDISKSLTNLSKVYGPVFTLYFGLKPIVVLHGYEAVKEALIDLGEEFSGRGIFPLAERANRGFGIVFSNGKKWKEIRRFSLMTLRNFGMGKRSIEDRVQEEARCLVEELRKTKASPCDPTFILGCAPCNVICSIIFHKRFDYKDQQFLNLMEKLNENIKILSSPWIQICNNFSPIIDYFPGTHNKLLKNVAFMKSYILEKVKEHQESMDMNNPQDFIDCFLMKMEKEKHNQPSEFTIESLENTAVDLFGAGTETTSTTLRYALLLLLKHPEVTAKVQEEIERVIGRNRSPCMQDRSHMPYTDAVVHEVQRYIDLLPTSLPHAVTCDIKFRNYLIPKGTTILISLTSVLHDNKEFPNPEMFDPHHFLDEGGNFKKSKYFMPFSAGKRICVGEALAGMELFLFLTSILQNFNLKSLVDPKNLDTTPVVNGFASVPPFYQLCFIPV

SMILES | Activity
Nc1nc2c(c(N3CCNCC3)n1)CCCc1ccc(F)cc1-2 | Not Active
Nc1nc2c(c(N3CCNCC3)n1)Cc1ccccc1-2 | Not Active

Tested on: not listed separately
Assay: Half life in rat at 10 mg/kg, iv
Format: ADME, organism-based
Parameters: dose 10 mg/kg, route intravenous
Conditions: in vivo

SMILES | half-life [h]
Nc1nc2c(c(N3CCNCC3)n1)CCCc1ccc(F)cc1-2 | 3.5

Tested on: not listed separately
Assay: Blood clearance in rat at 10 mg/kg, iv
Format: ADME, organism-based
Parameters: dose 10 mg/kg, route intravenous
Conditions: whole blood

SMILES | clearance [mL/min/kg]
Nc1nc2c(c(N3CCNCC3)n1)CCCc1ccc(F)cc1-2 | 60

Tested on: not listed separately
Assay: Terminal volume of distribution in rat at 10 mg/kg, iv
Format: ADME, organism-based
Parameters: dose 10 mg/kg, route intravenous
Conditions: in vivo, read-out: Vbeta

SMILES | Vd [L/kg]
Nc1nc2c(c(N3CCNCC3)n1)CCCc1ccc(F)cc1-2 | 18.2

Tested on: not listed separately
Assay: Fractional bioavailability in rat at 10 mg/kg, iv and 10 mg/kg, po
Format: ADME, organism-based
Conditions: in vivo

SMILES | bioavailability [%]
Nc1nc2c(c(N3CCNCC3)n1)CCCc1ccc(F)cc1-2 | 18

Tested on: Mus musculus
Assay: Antiinflammatory activity against ip dosed BALB/c mouse assessed as inhibition of zymosan-induced peritonitis after 2 hrs pretreated 30 mins before zymosan challenge
Format: functional
Conditions: not given

SMILES | ED50 [µmol/kg]
Nc1nc2c(c(N3CCNCC3)n1)CCCc1ccc(F)cc1-2 | 134

Tested on: Mus musculus
Assay: Inhibition of clobenpropit-induced itching in ip dosed CD1/ICR mouse assessed as blockade of scratching in hind paw for 25 mins pretreated 30 mins before clobenpropit challenge
Format: functional
Conditions: not given

SMILES | ED50 [µmol/kg]
Nc1nc2c(c(N3CCNCC3)n1)CCCc1ccc(F)cc1-2 | 10

Molecular target: T3, Histamine H4 receptor
Conditions: HEK293

SMILES | pKb
Nc1nc2c(c(N3CCNCC3)n1)CCCc1ccc(F)cc1-2 | 8.01
Nc1nc2c(c(N3CCNCC3)n1)Cc1ccccc1-2 | 8.75
CN[C@@H]1CCN(c2nc(N)nc3c2CCCCCc2ccccc2-3)C1 | 7.6

The remaining lines, values ahead:

pKb | SMILES
8.5 | CN[C@@H]1CCN(c2nc(N)nc3c2Cc2ccccc2-3)C1
8.15 | CN[C@@H]1CCN(c2nc(N)nc3c2CCCCc2ccccc2-3)C1
8.29 | CN[C@@H]1CCN(c2nc(N)nc3c2CCc2ccccc2-3)C1
